For series [1], the system named is normal human fibroblasts (Hfb). Description: MultiTox-Fluor cytotoxicity assay in normal human fibroblasts. The class given is cell-based. The method, then: (§1) Cell lines (HCT116, ht29, Rko, Hep3B, SW48, SW620, MDA-MB-231, PANC-1, su.86.86, Hfb) were obtained from the American Type Culture Collection (ATCC). Cell type authentication was carried out by microscope and DNA profiles using short tandem repeat analysis. Cells were grown in Minimum Essential Medium (MEM) containing 10% heat-inactivated Fetal Bovine Serum (FBS) or in Dulbecco's Modified Eagle's Medium (DMEM) containing 10% FBS, where specified, at 37° C. with 5% CO2. In general, the in-vitro experiments were carried out with 2. μM 0260 added into the growth medium. Dose response experiments included increasing 0260 concentrations. Cell death levels were determined using the MultiTox-Fluor Multiplex Cytotoxicity Assay (G9201, Promega, USA). In brief, 10,000 cells were seeded in black bottom 96 wells plate and were allowed to attach to the plate bottom for 16 h before the administration of various 0260 concentration in each well. Cell death levels were determined according to the manufacturer's protocol.
(§2) Cells death level was determined using the MultiTox-Fluor Multiplex Cytotoxicity Assay (G9201, Promega, USA) according to the manufacturer's protocol.

The subject of the next series is SW620 cells. Nature of the series: TUNEL assay in SW620 cells. The class given is cell-based, human. Particulars: 12 h. The method, then:
Samples of 1×10^6 cells were inoculated into a 6 well plate containing a cover slip, and fixed for 30 min with 4% paraformaldehyde following adhesion. The cells were then subjected to TUNEL analysis according to manufacturer's instructions (Roche, USA).

The test system of series [2] is pancreatic cancer cells (PANC-1). Nature of the series: MultiTox-Fluor cytotoxicity assay in PANC-1 cells. Format: cell-based, human. The note with it: PANC-1, 24-72 h. The method, then: as §1, §2
For another series, the system named is Hfb cells. Description: Glycolysis rate (secreted lactate) in Hfb cells. The note with it: low or high glucose. The class given is cell-based, human. The method, then:
Cells were grown in MEM containing 1 gr/lit glucose or in DMEM with 4.5 gr/lit glucose. Secreted lactate levels were determined using Lactate Colorimetric Assay Kit II according to the manufacturer's protocol (Biovision, USA).

The next series addresses T1, Fer-PARP-1 complex (Homo sapiens, UniProt P16591).
T1 construct: endogenous in cells; host or cells: SW620 cells, nuclear lysates
Description: Co-immunoprecipitation of Fer and PARP-1 from SW620 nuclear lysates. The class given is cell-based.

In series [3] the test system is Electron Transport Chain (ETC) complex I. Nature of the series: ETC Complex I activity assay in SW620 cells. Format: cell-based, human. The method, then:
SW620 cells were treated with 0260 for 4-22 h and the Complex I activity was determined for each period on incubation using the Complex I Enzyme Activity Microplate Assay Kit (Colorimetric) according to the manufacturer's instructions (ab109721).

The target in series [4] is CAMK1 (Calcium/calmodulin-dependent protein kinase type 1) (Homo sapiens, UniProt Q14012). Nature of the series: Kinase panel assay, CAMK1. The class given is biochemical. Particulars: above threshold. The method, then:
(§3) Kinase panel assays were performed using the FRET-based Z′-LYTE, Lantha Screen and Adapta enzymatic kinase assay systems (Life Technologies, Carlsbad, Calif.), which were carried out using the SelectScreen Kinase Profiling Service (Life Technologies). The standard reaction contained 2 μM peptide substrate, ATP at the optimal assay concentration, 50 mM HEPES (pH 7.5), 0.01% Brij-35, 10 mM MgCl2, 1 mM EGTA, and the tested kinase. Each kinase was checked for its activity in duplicate data points (n=2) and was assayed following the detailed procedures outlined in the SelectScreen service. Percent inhibition or ATP displacement (For Lantha screen) represent a ratio of phosphorylated/ATP bound product formed in the presence of the compound compared with phosphorylated/ATP bound product formed in reactions containing 1% DMSO.
(§4) Kinome technique was used for monitoring phosphorylation events and phosphorylation targets of 0260-Fer interaction, using peptide arrays for human targets and phosphorylation-specific antibodies. Construction of peptide arrays relied on information from phosphorylation databases. The following proteins were determined as significant above the threshold of 40% kinase activity inhibition or ATP displacement to the Kinase domain site.

The next series concerns SW620 CC cells. Description: MultiTox-Fluor cytotoxicity assay in SW620 CC cells. Format: cell-based, human. The note with it: for cell death: 2 μM; for pEC50: Homo sapiens, SW-620, read-out: EC50 (cell death). How it is done:
as §1, §2

The next series has as its system Hfb. Description: Cellular ATP level (HPLC) in Hfb. Format: cell-based, human. Particulars: 12 hours. The method, then:
Quantification of intracellular ATP was carried out using HPLC as previously described.
Cells were suspended in 400 μl cold 0.4M perchloric acid solution, incubated on ice for 15 min, centrifuged at 12,000×g, neutralized with 4M K2CO3 to pH 7.5, incubated for 15 min on ice and concentrated (10,000×g). Chromatographic analyses were performed using Hitachi Elite LaChrom system at 30° C. applying supernatants to SUPELCOSIL™ LC-18-S HPLC Column (5 μm particle size, L×I.D. 25 cm×2.1 mm), flow rate 0.2 mL/min under isocratic elution conditions (50 mM potassium phosphate, 100 mM triethylamine, pH 6.5 (adjusted with phosphoric acid)):Acetonitrile (98.5:1.5)). Each analysis cycle was set to 30 min, chromatographic flow was monitored at 260 nm and integrated using EZChrom Elite Software.

For series [5], the target named is FLT3 (FMS-like tyrosine kinase 3) (Homo sapiens, UniProt P36888). Description: Kinase panel assay, FLT3. Particulars: above threshold. The class given is biochemical. How it is done:
as §3, §4

Molecules are shown by their SMILES. pEC50: −log10 of the molar value. “Also recorded” adds a separate entry of the source. Where a name gives a salt, the structure may show the parent alone. Read-outs that look alike come from different tables or passages of the source.

T1 sequence (P16591 whole entry, one chain of several): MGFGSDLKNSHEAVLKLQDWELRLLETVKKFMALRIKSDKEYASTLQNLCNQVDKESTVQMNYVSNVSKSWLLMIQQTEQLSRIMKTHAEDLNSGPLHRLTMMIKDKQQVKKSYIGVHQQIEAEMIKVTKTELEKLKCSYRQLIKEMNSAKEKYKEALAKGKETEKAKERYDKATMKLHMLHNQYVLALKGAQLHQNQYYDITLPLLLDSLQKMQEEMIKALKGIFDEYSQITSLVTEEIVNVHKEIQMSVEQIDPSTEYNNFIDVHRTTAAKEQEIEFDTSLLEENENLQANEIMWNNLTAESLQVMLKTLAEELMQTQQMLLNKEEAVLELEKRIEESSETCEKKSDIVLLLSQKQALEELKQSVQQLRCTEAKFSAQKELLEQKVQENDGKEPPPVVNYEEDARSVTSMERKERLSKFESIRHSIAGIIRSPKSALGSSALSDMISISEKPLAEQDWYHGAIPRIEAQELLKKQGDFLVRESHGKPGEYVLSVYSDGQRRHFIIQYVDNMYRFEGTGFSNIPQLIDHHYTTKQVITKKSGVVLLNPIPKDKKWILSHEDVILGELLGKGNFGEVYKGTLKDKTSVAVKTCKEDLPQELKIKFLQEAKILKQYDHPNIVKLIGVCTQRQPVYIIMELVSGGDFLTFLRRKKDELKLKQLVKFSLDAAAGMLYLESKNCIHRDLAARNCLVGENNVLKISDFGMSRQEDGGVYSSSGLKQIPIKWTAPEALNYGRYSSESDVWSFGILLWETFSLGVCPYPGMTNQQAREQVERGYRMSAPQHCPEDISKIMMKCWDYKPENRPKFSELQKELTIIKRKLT
CAMK1 (Calcium/calmodulin-dependent protein kinase type 1), sequence (Q14012 whole entry): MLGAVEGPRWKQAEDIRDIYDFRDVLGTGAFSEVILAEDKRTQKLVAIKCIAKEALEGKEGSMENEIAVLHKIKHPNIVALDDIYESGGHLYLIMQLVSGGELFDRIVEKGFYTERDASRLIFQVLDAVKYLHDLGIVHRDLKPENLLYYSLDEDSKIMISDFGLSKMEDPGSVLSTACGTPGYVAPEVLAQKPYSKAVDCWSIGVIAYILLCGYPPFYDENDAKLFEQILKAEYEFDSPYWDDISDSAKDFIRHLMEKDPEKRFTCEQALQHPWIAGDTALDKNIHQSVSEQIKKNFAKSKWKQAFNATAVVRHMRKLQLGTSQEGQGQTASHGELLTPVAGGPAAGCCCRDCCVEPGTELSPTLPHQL
FLT3 (FMS-like tyrosine kinase 3), sequence (P36888 27-993): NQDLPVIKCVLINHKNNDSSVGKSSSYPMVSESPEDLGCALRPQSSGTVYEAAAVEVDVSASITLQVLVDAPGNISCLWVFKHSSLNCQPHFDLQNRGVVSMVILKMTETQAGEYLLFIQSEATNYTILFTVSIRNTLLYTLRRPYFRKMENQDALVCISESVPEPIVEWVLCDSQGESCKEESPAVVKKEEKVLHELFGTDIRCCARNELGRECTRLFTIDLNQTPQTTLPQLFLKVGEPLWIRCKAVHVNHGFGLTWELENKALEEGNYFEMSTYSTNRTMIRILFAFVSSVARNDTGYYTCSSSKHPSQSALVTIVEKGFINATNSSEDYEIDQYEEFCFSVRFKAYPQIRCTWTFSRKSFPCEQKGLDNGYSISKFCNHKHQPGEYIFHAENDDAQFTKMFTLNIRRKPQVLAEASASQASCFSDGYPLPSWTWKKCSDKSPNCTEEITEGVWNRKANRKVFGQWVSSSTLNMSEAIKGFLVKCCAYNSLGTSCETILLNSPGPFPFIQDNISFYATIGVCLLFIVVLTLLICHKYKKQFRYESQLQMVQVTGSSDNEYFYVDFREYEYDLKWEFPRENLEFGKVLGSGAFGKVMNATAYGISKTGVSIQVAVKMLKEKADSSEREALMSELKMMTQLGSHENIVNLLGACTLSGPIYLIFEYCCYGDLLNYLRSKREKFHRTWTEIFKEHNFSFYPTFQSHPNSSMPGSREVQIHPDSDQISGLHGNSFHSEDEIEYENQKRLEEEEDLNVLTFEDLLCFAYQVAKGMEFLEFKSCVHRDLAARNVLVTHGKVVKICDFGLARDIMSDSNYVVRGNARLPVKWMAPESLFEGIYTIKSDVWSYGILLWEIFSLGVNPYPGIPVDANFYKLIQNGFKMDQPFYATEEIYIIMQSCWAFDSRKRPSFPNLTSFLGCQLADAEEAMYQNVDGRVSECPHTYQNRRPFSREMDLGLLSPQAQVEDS

One may read the pEC50 as the EC50 on a negative log10 scale, so that one unit is a factor of ten. Regarding `CC(C)c1ccc(-c2cn3nc(N4CCC(CN5CCN(C)CC5)CC4)sc3n2)cc1` [compound 0260, tartarate salt of 6-(4-isopropyl-phenyl)-2-{4-[(4-methyl-piperazin-1-yl)methyl]piperidin-1-yl}-imidazo [2,1-b][1,3,4]thiadiazole], the “cell death / cytotoxic effect in normal fibroblasts” value in series [1] (24 h and 48 h, same conditions as SW620) is on record as “no death was seen; also recorded: Almost no cytotoxic effect”. Besides, the “sensitivity of normal cells lower than SW620” value in series [1] (Hfb 72 h vs SW620) is 50 fold. The pEC50 in [1] (Homo sapiens, Fibroblast, Hfb, 0-20 μM, 72 h) was 4.70; with SW620 CC cells (SW620, 4.5 gr/1 glucose (DMEM)), 5.29; in the series on SW620 CC cells (SW620, 24 h, micellar formulation, 1 gr/l glucose (MEM)) it was 6.40; in the series on SW620 CC cells (SW620, 48 h, micellar formulation), 6.52. Further, the “DNA integrity (TUNEL)” value in the series with SW620 cells is listed as “did not reveal any effect”. Further, the “concentration efficient in inducing cell death” value in series [2] is at most 1.5 µM. The “elevation in the glycolytic rate” value in the series with Hfb cells was “not observed”. Moreover, the “association of Fer with PARP-1” value on Fer-PARP-1 complex was “dissociated Fer from PARP-1”. Moreover, the “Complex I activity” value in [3] (SW620, 4 h post treatment) is reported as “inhibited”. The “Complex I activity (remaining)” value was “around 55%” in series [3] (SW620, 16 h) and about 35% in series [3] (SW620, 22 hours). The “kinase activity inhibition or ATP displacement” value in series [4] and in series [5] was over 40% each time. Moreover, the cell death in the series with SW620 CC cells (24 h, metastatic CC (SW620), 1 gr/l glucose) is 100%; in the series with SW620 CC cells (72 h, high glucose concentration) it was 100%. For the same molecule, the “death at the highest dose” value in the series with SW620 CC cells (SW620, 4.5 gr/1 glucose (DMEM)) was found to be 50%. For the same molecule, the “effect on cellular ATP level” value in the series with Hfb is on record as “not seen”.
